In assay [1] the test system is MCF-7 cells. The note with it: read-out: EC50 in inhibiting MCF-7 cell growth; cited from earlier work.
For assay [2], the system named is human erythrocytes. Briefly: Protective effect on human erythrocytes (AAPH-induced hemolysis). It counts as cell-based. The note with it: Erythrocyte, 37 °C, 3 h, read-out: Hemolytic Inhibition IC50. The protocol:
Hemolysis was induced by peroxyl radicals generated by AAPH (2-2'-Azobis (2-amidinopropane dihydrochloride) according to the methodology of Silva-Beltrán et al.. Then, 5 mL of blood was obtained from healthy human volunteers by venipuncture and collected into tubes containing EDTA as an anticoagulant. Erythrocytes were separated from plasma by centrifugation at 1500 rpm for 10 min at room temperature and washed three times with five volumes of phosphate-buffered saline (PBS) (37 mM of NaCl, 2.7 mM of KCI, 8 mM of Na2HPO4, and 2 mM of KH2PO4 w/v) at pH 7.4. Later, erythrocytes were suspended in four volumes of PBS solution to obtain a density of 8 × 10^9 cells/mL. The addition of AAPH to the suspension of washed erythrocytes induces oxidation of membrane lipids and proteins, resulting in hemolysis. The erythrocyte suspension (250 μL) was mixed with 250 μL of fruit extracts dissolved in PBS at concentrations of 500, 750, 1000, 2000 μg/mL and 250 μL of 300 mM AAPH in PBS. The reaction mixture was shaken gently while being incubated at 37 °C for 3 h. […] The supernatant's absorbance was measured in a microplate reader (Agilent BioTek Epoch, Santa Clara, CA, United States) at 540 nm. Percent inhibition was calculated by the following equation:% Inhibition = [[…] × 100] where AAAPH is the absorbance of AAPH at 540 nm and As is the absorbance of the extracts at 540 nm. […]

Assay [3] concerns erythrocytes. The settings on record: cited from earlier work.
Assay [4] deals with HeLa cells. The assay can be described thus: Antiproliferative activity, Alamar Blue, HeLa. It counts as cell-based. The settings on record: Homo sapiens, 24 h exposure, read-out: Half Maximal Inhibitory Concentration HeLa. The protocol: (§1) The antiproliferative effects of extracts of E. tinifolia and S. lanuginosum were assessed using the method described previously by Viveros-Valdez, et al.. HeLa (ATCC® CCL-2), MCF-7 (ATCC® HTB-22) and HT-29 (ATCC® HTB-38) cancer cell lines were used. The cells were seeded in 25 cm^2 tissue culture flasks in Dulbecco’s modified eagle medium (DMEM) mixed with Ham’s nutrients (Ham’s F-12) and supplemented with 10% fetal bovine serum (FBS), adjusting the pH to 7.2. A mixture of antibiotics composed of penicillin and streptomycin (10,000 IU/mL: 10,000 µg/mL; 1 mL of mixture/1 L of medium) was added. Cells were maintained at 37 °C in an incubator under a 5% CO2/95% air atmosphere at constant humidity. Cells were harvested by trypsinization, counted with a hemocytometer, and their viability was confirmed by Trypan Blue (0.4%). The different cancer cell lines were seeded with 5000 cells per well in a 96 well plate.
(In general: Alamar Blue is a resazurin reagent that responds to reducing activity.)

The test system of assay [5] is HT-29 cells. The assay can be described thus: Antiproliferative activity, Alamar Blue, HT-29. It counts as cell-based. The note with it: Homo sapiens, 24 h exposure, read-out: Half Maximal Inhibitory Concentration HT-29. How it is done: as §1

The structures appear in SMILES notation. ≈ marks a conversion by molar mass, not a printed value.

With `O=c1c(O[C@@H]2O[C@H](CO)[C@@H](O)[C@H](O)[C@H]2O)c(-c2ccc(O)c(O)c2)oc2cc(O)cc(O)c12` [QG, quercetin glucoside], the EC50 (usually the concentration needed to bring the measured effect to its halfway point) in assay [1] was 46.4 µM.
Regarding `O=C1O[C@H]([C@@H](O)CO)C(O)=C1O` [ascorbic acid], the IC50 in assay [2] turned out to be 289 ± 20 µg/mL (≈ 1640 µM).
For `Oc1cc(O)c2c(c1)O[C@H](c1ccc(O)c(O)c1)[C@H](O)C2` [epicatechin], the “hemolysis inhibition IC50” value in assay [3] was 42.3 µg/mL.
As for `CC(=O)O[C@H]1C(=O)[C@@]2(C)[C@H]([C@H](OC(=O)c3ccccc3)[C@]3(O)C[C@H](OC(=O)[C@H](O)[C@@H](NC(=O)c4ccccc4)c4ccccc4)C(C)=C1C3(C)C)[C@]1(OC(C)=O)CO[C@@H]1C[C@@H]2O` [taxol, Taxol], the IC50 in assay [4] turned out to be 11 ± 2 µg/mL (≈ 12.9 µM); in assay [5] it was 15 ± 1 µg/mL (≈ 17.6 µM).

The values above are taken from paper PMC8624189, “Phenolic Profiles and Biological Activities of Extracts from Edible Wild Fruits Ehretia tinifolia and Sideroxylon lanuginosum” (Foods, 2021).
